Laboratory results: patent EP4722212A1, “NOVEL COMPOUND FOR INHIBITING PROTEIN KINASES AND PHARMACEUTICAL COMPOSITION COMPRISING SAME” (Magicbullettherapeutics Co., Ltd., priority 2023, dated 2024)
Where two headings read alike, the source gives them in different places.

Tests used:
Assay in all cases: Kinase panel
Type in all cases: biochemical
ACK1 = molecular target: T1, ACK1 (Homo sapiens, UniProt Q07912); details: ACK1, 1 µM; read-out: residual enzyme activity
T1 construct: purchased Reaction Biology (RBC)
Method: (§1) To measure the inhibitory activity of protein kinases against the compounds of the present invention, a biochemical assay was performed using a full kinase panel. The inhibitory efficacy of kinases was measured when Example compounds 8 and 51 were treated at a single concentration of 1 µM, and residual enzyme activity values were calculated. Kinases were identified when the calculated residual enzyme activity values were 40% or less, i.e., inhibited by 60% or more.

ALK3/BMPR1A = ALK3/BMPR1A (Homo sapiens, UniProt P36894); details: read-out: residual enzyme activity
Method: as §1

CAMKIG = CAMKIG (Homo sapiens, UniProt Q96NX5); details: read-out: residual enzyme activity
Method: as §1

CAMKK2 = CAMKK2 (Homo sapiens, UniProt Q96RR4); details: CAMKK2, 1 µM; read-out: residual enzyme activity
Method: as §1

CDK2/CYCLIN O = CDK2/CYCLIN O (Homo sapiens, UniProt P24941); details: read-out: residual enzyme activity
Method: as §1

CDK6/CYCLIN D1 = CDK6/CYCLIN D1 (Homo sapiens, UniProt Q00534); details: CDK6/cyclin D1, 1 µM; read-out: residual enzyme activity
Method: as §1

CK1D = CK1D (Homo sapiens, UniProt P48730); details: read-out: residual enzyme activity
Method: as §1

CK2A2 = CK2A2 (Homo sapiens, UniProt P19784); details: read-out: residual enzyme activity
Method: as §1

DAPK1 = DAPK1 (Homo sapiens, UniProt P53355); details: DAPK1, 1 µM; read-out: residual enzyme activity
Method: as §1

DDR2 = DDR2 (Homo sapiens, UniProt Q16832); details: DDR2, 1 µM; read-out: residual enzyme activity
Method: as §1

EPHA1 = EPHA1 (Homo sapiens, UniProt P21709); details: EPHA1, 1 µM; read-out: residual enzyme activity
Method: as §1

FGFR4 = FGFR4 (Homo sapiens, UniProt P22455); details: FGFR4, 1 µM; read-out: residual enzyme activity
Method: as §1

GLK/MAP4K3 = GLK/MAP4K3 (Homo sapiens, UniProt Q8IVH8); details: GLK/MAP4K3, 1 µM; read-out: residual enzyme activity
Method: as §1

GRK1 = GRK1 (Homo sapiens, UniProt Q15835); details: GRK1, 1 µM; read-out: residual enzyme activity
Method: as §1

GRK3 = GRK3 (Homo sapiens, UniProt P35626); details: GRK3, 1 µM; read-out: residual enzyme activity
Method: as §1

HIPK4 = HIPK4 (Homo sapiens, UniProt Q8NE63); details: HIPK4, 1 µM; read-out: residual enzyme activity
Method: as §1

MLK4 = MLK4 (Homo sapiens, UniProt Q5TCX8); details: MLK4, 1 µM; read-out: residual enzyme activity
Method: as §1

MST2/STK3 = MST2/STK3 (Homo sapiens, UniProt Q13188); details: MST2/STK3, 1 µM; read-out: residual enzyme activity
Method: as §1

MUSK = MUSK (Homo sapiens, UniProt O15146); details: read-out: residual enzyme activity
Method: as §1

NEK2 = NEK2 (Homo sapiens, UniProt P51955); details: NEK2, 1 µM; read-out: residual enzyme activity
Method: as §1

PAK6 = PAK6 (Homo sapiens, UniProt Q9NQU5); details: PAK6, 1 µM; read-out: residual enzyme activity
Method: as §1

PDGFRB = PDGFRB (Homo sapiens, UniProt P09619); details: read-out: residual enzyme activity
Method: as §1

PIM3 = PIM3 (Homo sapiens, UniProt Q86V86); details: PIM3, 1 µM; read-out: residual enzyme activity
Method: as §1

PKG2/PRKG2 = PKG2/PRKG2 (Homo sapiens, UniProt Q13237); details: PKG2/PRKG2, 1 µM; read-out: residual enzyme activity
Method: as §1

ROCK1 = ROCK1 (Homo sapiens, UniProt Q13464); details: ROCK1, 1 µM; read-out: residual enzyme activity
Method: as §1

SBK1 = SBK1 (Homo sapiens, UniProt Q52WX2); details: SBK1, 1 µM; read-out: residual enzyme activity
Method: as §1

SIK2 = SIK2 (Homo sapiens, UniProt Q9H0K1); details: SIK2, 1 µM; read-out: residual enzyme activity
Method: as §1

SRPK2 = SRPK2 (Homo sapiens, UniProt P78362); details: SRPK2, 1 µM; read-out: residual enzyme activity
Method: as §1

STK25/YSK1 = STK25/YSK1 (Homo sapiens, UniProt O00506); details: STK25/YSK1, 1 µM; read-out: residual enzyme activity
Method: as §1

TGFBR2 = TGFBR2 (Homo sapiens, UniProt P37173); details: TGFBR2, 1 µM; read-out: residual enzyme activity
Method: as §1

TLK2 = TLK2 (Homo sapiens, UniProt Q86UE8); details: TLK2, 1 µM; read-out: residual enzyme activity
Method: as §1

TYK1/LTK = TYK1/LTK (Homo sapiens, UniProt P29376); details: read-out: residual enzyme activity
Method: as §1

TYK2 = TYK2 (Homo sapiens, UniProt P29597); details: TYK2, 1 µM; read-out: residual enzyme activity
Method: as §1

SRPK2, sequence (P78362 whole entry, species assumed): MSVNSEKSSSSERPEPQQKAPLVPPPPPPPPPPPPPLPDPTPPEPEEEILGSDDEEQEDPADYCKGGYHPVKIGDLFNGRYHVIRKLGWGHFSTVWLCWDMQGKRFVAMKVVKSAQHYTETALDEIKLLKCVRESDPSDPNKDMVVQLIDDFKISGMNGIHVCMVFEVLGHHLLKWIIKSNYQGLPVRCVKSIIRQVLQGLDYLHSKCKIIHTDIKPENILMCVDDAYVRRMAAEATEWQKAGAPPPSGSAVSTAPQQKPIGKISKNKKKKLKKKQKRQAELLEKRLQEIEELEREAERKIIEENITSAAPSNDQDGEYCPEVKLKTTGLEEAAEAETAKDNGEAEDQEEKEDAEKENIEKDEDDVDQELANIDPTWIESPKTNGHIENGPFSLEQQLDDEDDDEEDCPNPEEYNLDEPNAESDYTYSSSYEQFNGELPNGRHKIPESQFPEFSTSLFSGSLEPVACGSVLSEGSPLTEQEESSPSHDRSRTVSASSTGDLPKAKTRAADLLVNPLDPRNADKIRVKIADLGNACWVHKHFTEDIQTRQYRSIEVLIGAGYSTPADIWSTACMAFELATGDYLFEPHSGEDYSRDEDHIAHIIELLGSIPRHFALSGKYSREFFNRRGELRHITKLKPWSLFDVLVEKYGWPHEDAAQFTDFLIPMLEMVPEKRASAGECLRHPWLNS
TLK2, sequence (Q86UE8 whole entry, species assumed): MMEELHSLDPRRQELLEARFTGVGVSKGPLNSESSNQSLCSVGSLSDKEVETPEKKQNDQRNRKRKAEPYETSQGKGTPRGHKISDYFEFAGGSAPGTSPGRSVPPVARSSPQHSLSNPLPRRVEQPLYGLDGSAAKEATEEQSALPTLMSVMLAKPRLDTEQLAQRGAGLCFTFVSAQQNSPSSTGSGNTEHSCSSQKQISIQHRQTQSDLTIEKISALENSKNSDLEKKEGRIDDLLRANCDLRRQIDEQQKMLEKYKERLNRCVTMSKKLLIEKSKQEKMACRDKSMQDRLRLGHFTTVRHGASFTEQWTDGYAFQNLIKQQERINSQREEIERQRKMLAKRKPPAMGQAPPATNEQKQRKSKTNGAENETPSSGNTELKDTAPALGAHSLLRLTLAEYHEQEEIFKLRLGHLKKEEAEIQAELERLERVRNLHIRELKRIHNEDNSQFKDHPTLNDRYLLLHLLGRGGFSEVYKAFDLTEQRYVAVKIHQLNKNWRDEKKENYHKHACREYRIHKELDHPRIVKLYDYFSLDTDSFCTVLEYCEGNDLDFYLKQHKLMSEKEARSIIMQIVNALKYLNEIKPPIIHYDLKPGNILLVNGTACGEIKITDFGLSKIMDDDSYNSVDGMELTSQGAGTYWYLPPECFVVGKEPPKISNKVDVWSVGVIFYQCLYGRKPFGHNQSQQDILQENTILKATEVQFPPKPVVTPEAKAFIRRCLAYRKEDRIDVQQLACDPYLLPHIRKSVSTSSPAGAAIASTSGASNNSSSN
HIPK4, sequence (Q8NE63 whole entry, species assumed): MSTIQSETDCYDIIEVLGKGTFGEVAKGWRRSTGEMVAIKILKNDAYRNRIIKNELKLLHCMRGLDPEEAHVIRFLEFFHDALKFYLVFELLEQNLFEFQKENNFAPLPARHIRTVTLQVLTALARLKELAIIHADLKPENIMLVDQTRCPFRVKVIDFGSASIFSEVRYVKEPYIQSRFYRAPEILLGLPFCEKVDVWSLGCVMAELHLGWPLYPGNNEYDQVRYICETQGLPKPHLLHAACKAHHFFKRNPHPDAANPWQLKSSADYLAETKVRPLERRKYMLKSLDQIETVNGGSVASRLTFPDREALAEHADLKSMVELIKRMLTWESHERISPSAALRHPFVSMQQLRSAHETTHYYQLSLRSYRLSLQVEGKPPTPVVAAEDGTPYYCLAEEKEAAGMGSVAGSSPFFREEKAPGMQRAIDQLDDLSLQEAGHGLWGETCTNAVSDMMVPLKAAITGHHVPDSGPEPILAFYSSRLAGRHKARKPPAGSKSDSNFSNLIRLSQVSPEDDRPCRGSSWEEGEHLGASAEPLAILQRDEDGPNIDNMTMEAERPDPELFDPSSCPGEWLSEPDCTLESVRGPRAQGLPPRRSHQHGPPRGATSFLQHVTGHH
FGFR4, sequence (P22455 22-802, species assumed): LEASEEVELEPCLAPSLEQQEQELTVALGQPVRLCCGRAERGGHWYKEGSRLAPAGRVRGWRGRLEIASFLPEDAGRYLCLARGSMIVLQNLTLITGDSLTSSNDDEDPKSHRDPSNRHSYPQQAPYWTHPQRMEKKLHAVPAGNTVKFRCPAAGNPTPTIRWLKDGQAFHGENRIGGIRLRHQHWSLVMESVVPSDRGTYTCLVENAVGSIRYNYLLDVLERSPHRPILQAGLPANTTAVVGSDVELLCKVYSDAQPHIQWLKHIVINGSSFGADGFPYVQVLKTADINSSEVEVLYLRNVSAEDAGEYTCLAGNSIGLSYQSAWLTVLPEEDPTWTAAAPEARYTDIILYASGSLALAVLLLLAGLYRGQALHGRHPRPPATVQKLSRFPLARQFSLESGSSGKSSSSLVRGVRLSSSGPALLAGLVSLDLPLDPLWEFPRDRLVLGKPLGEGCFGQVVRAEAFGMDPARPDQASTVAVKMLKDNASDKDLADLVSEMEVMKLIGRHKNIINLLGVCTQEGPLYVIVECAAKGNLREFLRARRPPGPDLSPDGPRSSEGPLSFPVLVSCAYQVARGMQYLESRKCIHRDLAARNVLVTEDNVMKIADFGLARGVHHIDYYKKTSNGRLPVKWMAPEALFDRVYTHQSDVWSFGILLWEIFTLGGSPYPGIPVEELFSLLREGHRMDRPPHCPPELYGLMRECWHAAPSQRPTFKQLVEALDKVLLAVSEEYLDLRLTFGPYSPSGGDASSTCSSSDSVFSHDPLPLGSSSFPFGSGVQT
GRK3, sequence (P35626 whole entry, species assumed): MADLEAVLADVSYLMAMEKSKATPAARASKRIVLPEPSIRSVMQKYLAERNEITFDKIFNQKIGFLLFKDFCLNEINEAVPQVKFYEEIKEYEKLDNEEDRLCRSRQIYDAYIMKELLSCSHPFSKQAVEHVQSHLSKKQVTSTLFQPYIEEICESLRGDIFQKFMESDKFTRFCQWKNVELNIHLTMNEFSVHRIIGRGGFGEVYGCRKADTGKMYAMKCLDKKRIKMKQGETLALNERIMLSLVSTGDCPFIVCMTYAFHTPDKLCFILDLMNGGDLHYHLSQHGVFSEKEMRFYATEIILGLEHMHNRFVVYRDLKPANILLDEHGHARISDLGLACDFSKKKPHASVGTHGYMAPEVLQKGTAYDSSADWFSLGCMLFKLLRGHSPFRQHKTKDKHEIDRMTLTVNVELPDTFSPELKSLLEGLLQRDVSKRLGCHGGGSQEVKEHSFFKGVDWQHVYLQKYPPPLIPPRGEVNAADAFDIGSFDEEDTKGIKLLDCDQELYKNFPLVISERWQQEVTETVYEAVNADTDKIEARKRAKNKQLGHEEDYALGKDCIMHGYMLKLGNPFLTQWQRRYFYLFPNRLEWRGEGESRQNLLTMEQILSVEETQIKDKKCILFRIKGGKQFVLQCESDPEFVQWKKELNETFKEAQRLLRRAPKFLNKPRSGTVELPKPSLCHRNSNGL
DDR2, sequence (Q16832 22-855, species assumed): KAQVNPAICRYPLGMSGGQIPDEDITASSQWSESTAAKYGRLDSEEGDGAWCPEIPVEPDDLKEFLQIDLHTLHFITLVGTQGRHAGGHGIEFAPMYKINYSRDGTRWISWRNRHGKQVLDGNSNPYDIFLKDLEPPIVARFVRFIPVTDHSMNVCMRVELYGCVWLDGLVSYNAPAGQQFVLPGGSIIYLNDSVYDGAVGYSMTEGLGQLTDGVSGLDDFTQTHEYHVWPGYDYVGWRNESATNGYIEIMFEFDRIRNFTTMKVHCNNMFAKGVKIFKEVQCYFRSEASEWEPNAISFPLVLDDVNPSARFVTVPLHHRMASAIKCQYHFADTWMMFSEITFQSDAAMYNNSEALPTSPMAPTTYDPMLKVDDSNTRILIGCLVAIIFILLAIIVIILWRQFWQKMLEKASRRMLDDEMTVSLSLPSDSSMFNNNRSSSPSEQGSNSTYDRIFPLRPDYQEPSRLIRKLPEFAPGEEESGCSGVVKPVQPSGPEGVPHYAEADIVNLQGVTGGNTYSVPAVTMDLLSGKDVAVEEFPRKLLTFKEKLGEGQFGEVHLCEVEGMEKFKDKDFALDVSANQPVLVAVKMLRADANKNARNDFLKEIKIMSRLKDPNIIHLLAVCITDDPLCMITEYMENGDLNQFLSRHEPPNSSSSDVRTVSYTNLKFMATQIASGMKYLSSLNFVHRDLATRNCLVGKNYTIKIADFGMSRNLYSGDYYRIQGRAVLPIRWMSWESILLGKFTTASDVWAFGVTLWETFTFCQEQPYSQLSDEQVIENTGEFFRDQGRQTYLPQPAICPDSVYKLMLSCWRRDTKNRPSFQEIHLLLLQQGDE
CDK6/CYCLIN D1, sequence (Q00534 whole entry, species assumed): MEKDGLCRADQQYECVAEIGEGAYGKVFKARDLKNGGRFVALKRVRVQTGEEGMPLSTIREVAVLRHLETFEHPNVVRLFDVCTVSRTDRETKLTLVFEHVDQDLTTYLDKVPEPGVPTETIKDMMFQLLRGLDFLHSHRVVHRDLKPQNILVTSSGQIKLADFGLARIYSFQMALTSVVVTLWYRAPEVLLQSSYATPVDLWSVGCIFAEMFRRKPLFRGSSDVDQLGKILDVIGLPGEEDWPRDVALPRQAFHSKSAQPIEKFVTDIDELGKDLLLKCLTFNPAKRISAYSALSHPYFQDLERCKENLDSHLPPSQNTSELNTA
CDK6/CYCLIN D1, sequence (P24385 whole entry partner, species assumed): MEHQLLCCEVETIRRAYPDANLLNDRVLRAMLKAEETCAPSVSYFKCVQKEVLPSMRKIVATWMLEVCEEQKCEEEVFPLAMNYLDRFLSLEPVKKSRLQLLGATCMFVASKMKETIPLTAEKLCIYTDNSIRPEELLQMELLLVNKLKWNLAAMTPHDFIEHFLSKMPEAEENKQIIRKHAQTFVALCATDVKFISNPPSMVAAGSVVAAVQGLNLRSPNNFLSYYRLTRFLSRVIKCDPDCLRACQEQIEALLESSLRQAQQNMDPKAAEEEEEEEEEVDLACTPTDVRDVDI

## Cc1cn(-c2cc(C(=O)Nc3ccc(C)c(N4Cc5cnc(NC6CC6)nc5C5(CC5)C4=O)c3)cc(C(F)(F)F)c2)cn1 [Compound 8, N-(3-(2'-(cyclopropylamino)-7'-oxo-5'H-spiro[cyclopropane-1,8'-pyrido[4,3-d]pyrimidine]-6'(7'H)-yl)-4-methylphenyl)-3-(4-methyl-1H-imidazol-1-yl)-5-(trifluoromethyl)benzamide]
ACK1
  remaining activity at 1 µM: ≤ 40%
ALK3/BMPR1A
  remaining activity at 1 µM: > 40%
CAMKIG; CAMKIG
  remaining activity at 1 µM: > 40%
CAMKK2
  remaining activity at 1 µM: > 40%
CDK2/CYCLIN O
  remaining activity at 1 µM: > 40%
CDK6/CYCLIN D1
  remaining activity at 1 µM: > 40%
CK1D; CK1D
  remaining activity at 1 µM: > 40%
CK2A2; CK2A2, 1 µM
  remaining activity at 1 µM: > 40%
DAPK1
  remaining activity at 1 µM: > 40%
DDR2
  remaining activity at 1 µM: ≤ 40%
EPHA1
  remaining activity at 1 µM: ≤ 40%
FGFR4
  remaining activity at 1 µM: ≤ 40%
GLK/MAP4K3
  remaining activity at 1 µM: ≤ 40%
GRK1
  remaining activity at 1 µM: > 40%
GRK3
  remaining activity at 1 µM: > 40%
HIPK4
  remaining activity at 1 µM: > 40%
MLK4
  remaining activity at 1 µM: > 40%
MST2/STK3
  remaining activity at 1 µM: > 40%
MUSK
  remaining activity at 1 µM: ≤ 40%
NEK2
  remaining activity at 1 µM: > 40%
PAK6
  remaining activity at 1 µM: > 40%
PDGFRB
  remaining activity at 1 µM: ≤ 40%
PIM3
  remaining activity at 1 µM: > 40%
PKG2/PRKG2
  remaining activity at 1 µM: > 40%
ROCK1
  remaining activity at 1 µM: > 40%
SBK1
  remaining activity at 1 µM: > 40%
SIK2
  remaining activity at 1 µM: > 40%
SRPK2
  remaining activity at 1 µM: > 40%
STK25/YSK1
  remaining activity at 1 µM: > 40%
TGFBR2
  remaining activity at 1 µM: > 40%
TLK2
  remaining activity at 1 µM: > 40%
TYK1/LTK
  remaining activity at 1 µM: ≤ 40%
TYK2
  remaining activity at 1 µM: ≤ 40%

## Cc1ccc(Nc2ncc3c(n2)C2(CC2)C(=O)N(c2cc(NC(=O)c4cccc(C(F)(F)F)c4)ccc2C)C3)cn1 [Compound 51, N-(4-methyl-3-(2'-((6-methylpyridin-3-yl)amino)-7'-oxo-5'H-spiro[cyclopropane-1,8'-pyrido[4,3-d]pyrimidine]-6'(7'H)-yl)phenyl)-3-(trifluoromethyl)benzamide]
ACK1
  remaining activity at 1 µM: ≤ 40%
ALK3/BMPR1A
  remaining activity at 1 µM: > 40%
CAMKIG; CAMK1g
  remaining activity at 1 µM: > 40%
CAMKK2
  remaining activity at 1 µM: > 40%
CDK2/CYCLIN O
  remaining activity at 1 µM: > 40%
CDK6/CYCLIN D1
  remaining activity at 1 µM: > 40%
CK1D; CKld
  remaining activity at 1 µM: > 40%
CK2A2; CK2a2, 1 µM
  remaining activity at 1 µM: > 40%
DAPK1
  remaining activity at 1 µM: > 40%
DDR2
  remaining activity at 1 µM: ≤ 40%
EPHA1
  remaining activity at 1 µM: ≤ 40%
FGFR4
  remaining activity at 1 µM: ≤ 40%
GLK/MAP4K3
  remaining activity at 1 µM: ≤ 40%
GRK1
  remaining activity at 1 µM: > 40%
GRK3
  remaining activity at 1 µM: > 40%
HIPK4
  remaining activity at 1 µM: ≤ 40%
MLK4
  remaining activity at 1 µM: > 40%
MST2/STK3
  remaining activity at 1 µM: > 40%
MUSK
  remaining activity at 1 µM: ≤ 40%
NEK2
  remaining activity at 1 µM: > 40%
PAK6
  remaining activity at 1 µM: > 40%
PDGFRB
  remaining activity at 1 µM: ≤ 40%
PIM3
  remaining activity at 1 µM: > 40%
PKG2/PRKG2
  remaining activity at 1 µM: > 40%
ROCK1
  remaining activity at 1 µM: > 40%
SBK1
  remaining activity at 1 µM: > 40%
SIK2
  remaining activity at 1 µM: ≤ 40%
SRPK2
  remaining activity at 1 µM: > 40%
STK25/YSK1
  remaining activity at 1 µM: > 40%
TGFBR2
  remaining activity at 1 µM: > 40%
TLK2
  remaining activity at 1 µM: > 40%
TYK1/LTK
  remaining activity at 1 µM: > 40%
TYK2
  remaining activity at 1 µM: ≤ 40%
